Series [1] is described as follows: Evaluation of phase transition temperature by polarizing microscope. Format: physicochemical. The following applies: for TNi(° C.) Isotropic Phase Transition Point / Tsm—N(° C.) Sm—N Transition Point: during temperature increase; for Phase Transition Temperature Evaluation of Decrease: versus comparative compound with the same Ar and side chain portion of Formula (Ia). The text has this:
Here, the temperature at which the compound transitions from the smectic phase to the nematic phase may be easily measured by observation of the composition employing polarized light microscopy. For example, in the nematic phase, a schlieren texture specific to the nematic phase is observed, while the texture transitions to a focal conic fan texture in a smectic A phase. Therefore, the phase transition temperature can be measured by observing the textures with a polarizing microscope while increasing or decreasing the temperature.
The phase transition temperatures of the synthesized liquid crystal compounds of the Examples and Comparative Examples were observed using a polarizing microscope to evaluate the degrees of temperature decrease. Specifically, the compounds of the Examples were compared to the compounds of the Comparative Examples, which have different structures for the side chain portions thereof. That is, the phase transition temperature of a compound of a Comparative Example having Ar (the aromatic ring at the center of General Formula 1) in common with the Examples and a side chain portion represented by Formula (Ia) below was used as a reference. Evaluations of A through C were assigned according to the degree of temperature decrease from the reference phase transition temperature.
(§1) For example, compound (I-1) and (I-2) were compared to Comparative Compound (Ia-1), and Compound (III-3) was compared to Comparative Compound (IIIa-3). The evaluation was carried out based on the following criteria.
A: decrease in melting point or Sm-N (smectic-nematic) transition temperature is 20° C. or greater
B: decrease in melting point or Sm-N (smectic-nematic) transition temperature is 5° C. or greater and less than 20° C.
C: decrease in melting point or Sm-N (smectic-nematic) transition temperature is less than 5° C.
With respect to the phase transition temperature, the numerical value in parentheses represents the numerical value during temperature decrease, and other numerical values represent a numerical value during temperature increase.

Series [2] can be described thus: Measurement and evaluation of solubility in MEK and CPN. Type of series: physicochemical. Set-up: key to Solubility Evaluation: A: solubility improved twofold or greater in plural solvents or a single solvent; B: solubility was the same or improved up to twofold in plural solvents or a single solvent; C: no improvement in solubility in plural solvents or a single solvent. The note with it: for Solubility CPN wt %: cyclopentanone; for Solubility CPN wt % / Solubility MEK wt %: room temperature, visual observation, 5 wt % increments; for Solubility MEK wt %: methyl ethyl ketone; for Solubility Evaluation: versus comparative compound with the same Ar and side chain portion of Formula (Ia). The method, then: Solubility measurements of the synthesized liquid crystal compounds were conducted by the following method. 50 mg of each compound was weighted into a 1.5 mL sample bottle, and solvent was added until the solid component became 40 wt % (75 mg). The solubility was determined to be 40 wt % if clear under visual observation after shaking well manually at room temperature. If undissolved residue was present, solvent was added such that the solid component became 35 wt % (+18 mg). The solubility was determined to be 35 wt % if clear under visual observation after shaking well manually at room temperature. If undissolved residue was present, solvent was added such that the solid component became 30 wt %. Similar operations were performed in increments of 5 wt %, and repeated until the solid component became 5 wt %. If undissolved residue was present, the solubility was determined to be less than 5 wt % (<5 wt %), and measurements were completed. MEK (methyl ethyl ketone) and CPN (cyclopentanone) were utilized as solvents for measuring solubility.
The measured values of solubility were evaluated. The evaluations were conducted by using solubility of a compound of a Comparative Example having Ar (the aromatic ring at the center of General Formula 1) in common with the Examples and a side chain portion represented by Formula (Ia) as a reference, in a manner similar to that in the evaluation of the phase transition temperature. Evaluations of A through C were assigned according to the degree of improvement in solubility from the reference solubility.
as §1
A: solubility improved twofold or greater in plural solvents or a single solvent
B: solubility was the same or improved up to twofold in plural solvents or a single solvent
C: no improvement in solubility in plural solvents or a single solvent

The values below come from patent publication US11072741B2, “Optically anisotropic layer, method for producing the optically anisotropic layer, a laminate, polarizing plate, display device, liquid crystal compound, method for producing the liquid crystal compound, and carboxylic acid compound” (FUJIFILM Corporation, priority 2014, dated 2021).

Usually melting point stands for the temperature, or range, at which the solid turns liquid.

The structures appear in SMILES notation.

On to `C=CC(=O)OCCCCOC(=O)[C@H]1CC[C@H](C(=O)O[C@H]2CC[C@H](C(=O)Oc3ccc(OC(=O)[C@H]4CC[C@H](OC(=O)[C@H]5CC[C@H](C(=O)OCCCCOC(=O)C=C)CC5)CC4)c4c3SC(=C(C#N)C#N)S4)CC2)CC1` [Ib-1], for which the melting point turned out to be 170 °C. In addition, in series [1], the “TNi(° C.) Isotropic Phase Transition Point” value amounted to 206 °C and the “Phase Transition Temperature Evaluation of Decrease” value was “C (decrease in melting point or Sm-N (smectic-nematic) transition temperature is less than 5° C.)”. For the same molecule, in series [2], the “Solubility CPN wt %” value is 10 wt %, the “Solubility MEK wt %” value is given as under 5 wt % and the “Solubility Evaluation” value is “C”.

In the case of `C=CC(=O)OCCCCOc1ccc(C(=O)Oc2ccc(C(=O)Oc3ccc(OC(=O)c4ccc(OC(=O)c5ccc(OCCCCOC(=O)C=C)cc5)cc4)c4c3SC(=C(C#N)C#N)S4)cc2)cc1` [Ic-1], the melting point was determined as 185 °C. In addition, in series [1], the “TNi(° C.) Isotropic Phase Transition Point” value was >210^ ° C and the “Phase Transition Temperature Evaluation of Decrease” value is given as “C (decrease in melting point or Sm-N (smectic-nematic) transition temperature is less than 5° C.)”. In series [2], the “Solubility CPN wt %” value was under 10 wt %, the “Solubility MEK wt %” value was under 5 wt % and the “Solubility Evaluation” value is “C”.

In turn, `C=CC(=O)OCCOC(=O)CCC(=O)OCCc1ccc(OC(=O)[C@H]2CC[C@H](C(=O)Oc3ccc(OC(=O)[C@H]4CC[C@H](C(=O)Oc5ccc(CCOC(=O)CCC(=O)OCCOC(=O)C=C)cc5)CC4)c(/C=N/Nc4nc5ccccc5s4)c3)CC2)cc1` [VI-1] had a melting point of 134 °C. Further, in series [1], the “TNi(° C.) Isotropic Phase Transition Point” value was 190 °C and the “Phase Transition Temperature Evaluation of Decrease” value is “A (decrease in melting point or Sm-N (smectic-nematic) transition temperature is 20 °C or greater)”. In addition, in series [2], the “Solubility CPN wt %” value is 35 wt %, the “Solubility MEK wt %” value was 20 wt % and the “Solubility Evaluation” value is “A (solubility improved twofold or greater in plural solvents or a single solvent)”.

In turn, `C=CC(=O)OCCOC(=O)CCC(=O)OCCc1ccc(OC(=O)[C@H]2CC[C@H](C(=O)Oc3ccc(OC(=O)[C@H]4CC[C@H](C(=O)Oc5ccc(CCOC(=O)CCC(=O)OCCOC(=O)C=C)cc5)CC4)c4sc(=S)sc34)CC2)cc1` [VI-7] showed a melting point of 123 °C. In series [1], the “TNi(° C.) Isotropic Phase Transition Point” value was determined as 145 °C, the “Tsm—N(° C.) Sm—N Transition Point” value was 137 °C and the “Phase Transition Temperature Evaluation of Decrease” value is “A (decrease in melting point or Sm-N (smectic-nematic) transition temperature is 20 °C or greater)”. In series [2], the “Solubility CPN wt %” value came to 25 wt %, the “Solubility MEK wt %” value was 15 wt % and the “Solubility Evaluation” value was “B (solubility was the same or improved up to twofold in plural solvents or a single solvent)”.

`C=CC(=O)OCCCCCCOc1ccc(OC(=O)[C@H]2CC[C@H](C(=O)Oc3ccc(OC(=O)[C@H]4CC[C@H](C(=O)Oc5ccc(OCCCCCCOC(=O)C=C)cc5)CC4)c(/C=N/Nc4nc5ccccc5s4)c3)CC2)cc1` [VIa-1] gave a melting point of 163 °C. Further, the “TNi(° C.) Isotropic Phase Transition Point” value in series [1] amounted to 279 °C. Also, in series [2], the “Solubility CPN wt %” value was determined as 20 wt % and the “Solubility MEK wt %” value is 10 wt %.

In turn, `C=CC(=O)OCCCCCCOc1ccc(OC(=O)[C@H]2CC[C@H](C(=O)Oc3ccc(OC(=O)[C@H]4CC[C@H](C(=O)Oc5ccc(OCCCCCCOC(=O)C=C)cc5)CC4)c4sc(=S)sc34)CC2)cc1` [VIa-7] had a melting point of 124 °C. Further, in series [1], the “TNi(° C.) Isotropic Phase Transition Point” value was found to be 247 °C and the “Tsm—N(° C.) Sm—N Transition Point” value worked out at 164 °C. In series [2], the “Solubility CPN wt %” value is 20 wt % and the “Solubility MEK wt %” value is reported as under 10 wt %.
